Tests used:
[1] = system: huH-1; experiment: Cytotoxicity on hepatocellular carcinoma cell line huH-1; assay type: cell-based
Description: If not otherwise specified, IC50 values were measured by the following experimental methods:
a) Cells were plated for 24 hours, and then the compounds acted singly. 99 μL of growth medium was supplemented per well, and then 1 μL of 200× compound was added, gently shaken to ensure uniform mixing, and then placed in a 37° C., 5% CO2 incubator.
b) The cell plate was placed in the incubator for 72 hours.
b) 100 μL of CTG reagent (CelltiterGlo kit) was added to each well, the plate was placed in a rapid oscillator and shaken for 2 minutes, and then placed at room temperature for 30 minutes away from light.
The IC50 was calculated using GraphPad Prism 8 software and the IC50 (half inhibitory concentration) of the compounds was obtained using the following non-linear fitting formula: […]
Using the same experimental methods as described above, Compounds A, B and C were further tested for cytotoxicity against different hepatocellular carcinoma (HCC) cell lines SNU354, SNU886, MHCC97H and huH-1, and the results were shown in Table 2 below: […]

[2] = system: human lung cancer NCI-H460 cells; experiment: In vivo pharmacodynamics, NCI-H460 subcutaneous xenograft model; set-up: species or system BALB/c nude mice; settings: Day 31
Description: BALB/c nude mice were subcutaneously inoculated with human lung cancer NCI-H460 cells to establish a subcutaneous transplantation tumor model of human lung cancer.
The pharmacodynamic analysis of each group in the NCI-H460 CDX model was performed on Day 31 after tumor cell inoculation, and the results were shown in Table 10.

[3] = system: HuPrime model PA1222 human pancreatic cancer; experiment: In vivo pharmacodynamics, pancreatic cancer PA1222 PDX model; settings: for Tumor volume: 10 mg/kg i.v.
Description: The test was divided into groups of test drug Gemcitabine 120 mg/kg group, test drug Compound A 10 mg/kg and 7.5% anhydrous ethanol+7.5% polyoxyethylene (35) castor oil+85% glucose injection DSW (pH 7.4) vehicle control group, a total of 3 groups, with 5 mice per group. […] Test drug Gemcitabine (Gemcitabine) 120 mg/kg group was administered intraperitoneally, once a week for three consecutive weeks.

[4] = Plasma stability test, monkey; assay type: in vitro ADME; settings: 37° C.
Description: The pH of the plasma was checked and recorded. Note: a.
The final concentration of solvent was 0.5%.
The assay was performed in duplicate. […] The tubes were mixed by vortex for 5 minutes.

[5] = system: human lung cancer NCI-H460 cells; experiment: In vivo pharmacodynamics, NCI-H460 subcutaneous xenograft model; set-up: species or system BALB/c nude mice; settings: for Relative tumor volume (x ± S) / T/C (%) / TGI (%) / Tumor volume (x ± S): QWx3, i.v.; for Tumor volume (x ± S): in mm³ (unit assumed)

O=[N+]([O-])c1ccc(C(OP(=O)(N2CC2)N2CC2)C(F)(F)F)cc1Oc1ccc(-c2ccc(F)cc2)c(F)c1 (racemic) [Compound A]
IC50 ([1]; Homo sapiens, HuH-1): 0.306 µM | ratio A/B ([1]; IC50 ratio, huH-1): 1.19 | ratio A/C ([1]; IC50 ratio, huH-1): 1.14 | T/C (%) ([2]; 10 mg/kg, QWx3, i.v.): 8.94% | Tumor volume (x ± S) ([2]; 10 mg/kg, QWx3, i.v., in mm³ (unit assumed)): 164.13 ± 34.01 | Tumor volume ([2]; 15 mg/kg i.v.): 125.90 mm^3 | Relative tumor volume (x ± S) ([2]; 15 mg/kg, QWx3, i.v.): 0.92 ± 0.22 | TGI (%) ([2]; 15 mg/kg, QWx3, i.v.): 93.06% | toxic side effects (body weight change) ([3]; 10 mg/kg i.v. QWx3): without toxic side effects | Tumor volume ([3]; Day 0): 111.50 mm^3 | Tumor volume ([3]; Day 3): 117.62 mm^3 | Tumor volume ([3]; Day 7): 113.91 mm^3 | Tumor volume ([3]; Day 10): 107.17 mm^3 | Tumor volume ([3]; Day 14): 66.08 mm^3 | Tumor volume ([3]; Day 17): 42.94 mm^3 | Tumor volume ([3]; Day 21): 23.22 mm^3 | Tumor volume ([3]; Day 24): 21.20 mm^3 | Tumor volume ([3]; Day 28): 12.51 mm^3 | Relative tumor volume (x ± S) ([3]; 10 mg/kg, QWx3, i.v., Day 28): 0.10 ± 0.04 | T/C (%) ([3]; 10 mg/kg, QWx3, i.v., Day 28): 2.86% | TGI (%) ([3]; 10 mg/kg, QWx3, i.v., Day 28): 97.14% | Tumor volume (x ± S) ([3]; 10 mg/kg, QWx3, i.v., Day 28): 12.51 ± 5.25 | Percentage remaining after 2 hours in plasma ([4]; Monkey plasma, 5 μM): 79.20% | remained in plasma after 2 hours ([4]; monkey plasma): 79.20% | Tumor volume ([5]; 5 mg/kg i.v., Day 7): 144.35 mm^3 | Tumor volume ([5]; 5 mg/kg i.v., Day 10): 183.15 mm^3 | Tumor volume ([5]; 5 mg/kg i.v., Day 14): 198.80 mm^3 | Tumor volume ([5]; 5 mg/kg i.v., Day 17): 228.87 mm^3 | Tumor volume ([5]; 5 mg/kg i.v., Day 21): 253.30 mm^3 | Tumor volume ([5]; 5 mg/kg i.v., Day 24): 310.83 mm^3 | Tumor volume ([5]; 5 mg/kg i.v., Day 28): 279.31 mm^3 | Tumor volume ([5]; 5 mg/kg i.v., Day 31): 337.78 mm^3 | Tumor volume ([5]; 5 mg/kg i.v., Day 35): 452.75 mm^3 | Relative tumor volume (x ± S) ([5]; 5 mg/kg, Day 31): 2.45 ± 0.29 | T/C (%) ([5]; 5 mg/kg, Day 31): 18.51% | TGI (%) ([5]; 5 mg/kg, Day 31): 81.49% | Tumor volume (x ± S) ([5]; 5 mg/kg, Day 31): 337.78 ± 54.37 | Tumor volume ([5]; 10 mg/kg i.v., Day 7): 144.21 mm^3 | Tumor volume ([5]; 10 mg/kg i.v., Day 10): 164.75 mm^3 | Tumor volume ([5]; 10 mg/kg i.v., Day 14): 151.95 mm^3 | Tumor volume ([5]; 10 mg/kg i.v., Day 17): 140.29 mm^3 | Tumor volume ([5]; 10 mg/kg i.v., Day 21): 138.66 mm^3 | Tumor volume ([5]; 10 mg/kg i.v., Day 24): 144.36 mm^3 | Tumor volume ([5]; 10 mg/kg i.v., Day 28): 149.16 mm^3 | Tumor volume ([5]; 10 mg/kg i.v., Day 31): 164.13 mm^3 | Tumor volume ([5]; 10 mg/kg i.v., Day 35): 168.68 mm^3 | Relative tumor volume (x ± S) ([5]; 10 mg/kg, Day 31): 1.18 ± 0.27 | TGI (%) ([5]; 10 mg/kg, Day 31): 91.06% | Tumor volume ([5]; 15 mg/kg i.v., Day 7): 145.41 mm^3 | Tumor volume ([5]; 15 mg/kg i.v., Day 10): 171.22 mm^3 | Tumor volume ([5]; 15 mg/kg i.v., Day 14): 167.54 mm^3 | Tumor volume ([5]; 15 mg/kg i.v., Day 17): 161.80 mm^3 | Tumor volume ([5]; 15 mg/kg i.v., Day 21): 157.66 mm^3 | Tumor volume ([5]; 15 mg/kg i.v., Day 24): 151.20 mm^3 | Tumor volume ([5]; 15 mg/kg i.v., Day 28): 134.73 mm^3 | Tumor volume ([5]; 15 mg/kg i.v., Day 35): 108.70 mm^3 | T/C (%) ([5]; 15 mg/kg, Day 31): 6.94% | Tumor volume (x ± S) ([5]; 15 mg/kg, Day 31): 125.90 ± 25.46 | effect on body weights ([5]; 5, 10, 15 mg/kg, at least 31 days): no significant effect on the body weights

Reference: patent publication US20260159536A1, “AKR1C3-ACTIVATED DNA ALKYLATING AGENT, AND MEDICAL APPLICATION THEREOF” (ASCENTAWITS PHARMACEUTICALS, LTD., priority 2021, published 2026)
